Measurements taken from ChEMBL document CHEMBL1201862, “PubChem BioAssay data set” (2004).
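Tested at 5 concentrations; 48 h exposure; 96-well plates; endpoints linearly interpolated, else capped at highest concentration. GI50 is the concentration that inhibits growth by half.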 The source made the active and inactive calls. No stated cut-off is given here; in the data, active = GI50 up to about 1.1 µM and inactive = higher.

Key:
Test in all cases: NCI tumour cell line growth inhibition, 48 h
[1] = test system: DU-145
[2] = test system: MOLT-4
[3] = test system: NCI-H23
[4] = test system: HT-29
[5] = test system: T47D
[6] = test system: EKVX
[7] = test system: MCF7
[8] = test system: OVCAR-8
[9] = test system: SK-MEL-2
[10] = test system: 786-0
[11] = test system: LOX IMVI
[12] = test system: HCC 2998
[13] = test system: RPMI-8226
[14] = test system: ACHN
[15] = test system: SN12C
[16] = test system: OVCAR-5
[17] = test system: SNB-75
[18] = test system: A498
[19] = test system: HOP-92

Measured: GI50

N#Cc1nc(CCCCCN2C(=O)c3ccccc3C2=O)oc1N
inactive: [1] > 100 µM | [2] 75.7 µM | [3] > 100 µM | [4] > 100 µM | [5] > 100 µM | [6] > 100 µM | [7] > 100 µM | [8] > 100 µM | [9] > 100 µM | [10] > 100 µM | [11] > 100 µM | [12] 16.3 µM | [13] 21.1 µM | [14] > 100 µM | [15] > 100 µM | [16] > 100 µM

O=c1c(SSc2coc3cc(F)ccc3c2=O)coc2cc(F)ccc12
inactive: [1] 47.3 µM | [2] 7.31 µM | [3] 25.1 µM | [4] 15.3 µM | [5] 20.7 µM | [6] 21.1 µM | [7] 14.6 µM | [8] 7.78 µM | [10] 10 µM | [11] 2.65 µM | [12] 16.1 µM | [17] 11 µM | [13] 22.3 µM | [14] 6.92 µM | [15] 15.2 µM | [16] 37.8 µM

Nc1nc(-c2ccccc2)c(CC(=O)O)s1
inactive: [1] > 100 µM | [2] > 100 µM | [4] > 100 µM | [5] > 100 µM | [6] > 100 µM | [7] > 100 µM | [18] > 100 µM | [8] > 100 µM | [9] > 100 µM | [10] > 100 µM | [11] > 100 µM | [17] > 100 µM | [13] > 100 µM | [14] > 100 µM | [19] > 100 µM | [15] > 100 µM | [16] > 100 µM

CCO[C@H]1C[C@@H](c2ccccc2)[C@]2(C)C[C@H](C(=O)OC)ON2O1
inactive: [1] > 100 µM | [2] > 100 µM | [3] > 100 µM | [4] > 100 µM | [5] > 100 µM | [6] > 100 µM | [7] > 100 µM | [18] > 100 µM | [8] > 100 µM | [9] > 100 µM | [10] > 100 µM | [11] > 100 µM | [13] > 100 µM | [14] > 100 µM | [19] > 100 µM | [15] > 100 µM | [16] > 100 µM

Cc1ccnc(NS(=O)(=O)c2ccc(N=[N+]=[N-])cc2)n1
inactive: [1] > 100 µM | [3] > 100 µM | [4] > 100 µM | [5] > 100 µM | [6] > 100 µM | [7] > 100 µM | [18] > 100 µM | [8] > 100 µM | [9] > 100 µM | [10] > 100 µM | [11] > 100 µM | [17] > 100 µM | [13] > 100 µM | [14] > 100 µM | [19] > 100 µM | [15] > 100 µM | [16] > 100 µM

CCc1ccccc1NC(=O)C(C#N)C1=C(Cl)C(=O)c2ccccc2C1=O (stereo not given)
inactive: [1] 17.4 µM | [2] 8.73 µM | [3] 12.6 µM | [4] 14.1 µM | [5] 19.5 µM | [6] 17.1 µM | [7] 22.8 µM | [8] 17.9 µM | [9] 17.3 µM | [10] 15.5 µM | [11] 13.2 µM | [17] 17.3 µM | [13] 12.4 µM | [14] 15.2 µM | [19] 29.4 µM | [15] 13.1 µM | [16] 18.6 µM

CO/C(=N\N=C\c1ccc(Cl)cc1Cl)c1ccncc1
inactive: [1] > 10 µM | [2] > 10 µM | [3] > 10 µM | [4] > 10 µM | [5] 7.69 µM | [6] > 10 µM | [7] > 10 µM | [8] > 10 µM | [9] > 10 µM | [10] > 10 µM | [11] > 10 µM | [13] 6.24 µM | [14] > 10 µM | [19] > 10 µM | [15] > 10 µM | [16] > 10 µM

O=C1C2SC34c5c2c2ccccc2n5CCC3CCCN14 (stereo not given)
inactive: [1] > 100 µM | [2] > 100 µM | [3] > 100 µM | [4] > 100 µM | [5] 91.2 µM | [6] > 100 µM | [7] > 100 µM | [18] > 100 µM | [8] 83.8 µM | [9] 74.6 µM | [10] 27.5 µM | [11] > 100 µM | [13] > 100 µM | [14] > 100 µM | [19] 34.9 µM | [15] > 100 µM | [16] > 100 µM

N=C1/C(=C/c2ccco2)C(=O)N=C2SC=NN12
inactive: [1] > 100 µM | [2] > 100 µM | [3] > 100 µM | [4] > 100 µM | [5] > 100 µM | [6] > 100 µM | [7] > 100 µM | [8] > 100 µM | [9] > 100 µM | [10] > 100 µM | [11] > 100 µM | [12] > 100 µM | [17] 99.1 µM | [13] > 100 µM | [14] > 100 µM | [19] > 100 µM | [15] > 100 µM | [16] > 100 µM

CS(=O)(=O)Nc1ccc(N2Cc3c[nH]c4ccc5nccc2c5c34)cc1
inactive: [1] 18.3 µM | [2] 2.72 µM | [3] 24.6 µM | [4] 25.5 µM | [5] 3.5 µM | [6] 44.7 µM | [7] 8.65 µM | [18] 23.2 µM | [8] 13.7 µM | [9] 16.4 µM | [10] 14.3 µM | [11] 12.2 µM | [13] 20.3 µM | [14] 28.6 µM | [19] 12.9 µM | [15] 14 µM | [16] 22.8 µM

CO/N=C(\C(=O)Nn1cn[n+](CC(=O)[O-])c1)c1csc(N)n1
inactive: [1] > 10 µM | [2] > 10 µM | [3] > 10 µM | [4] > 10 µM | [5] > 10 µM | [6] > 10 µM | [7] > 10 µM | [8] > 10 µM | [10] > 10 µM | [11] > 10 µM | [12] > 10 µM | [17] 9.25 µM | [13] > 10 µM | [14] > 10 µM | [19] > 10 µM | [15] > 10 µM

Cc1cccc(Cn2c3c(c4cc(O)ccc42)C(=O)c2ccccc2C3=O)c1
inactive: [1] > 100 µM | [2] > 83.6 µM | [3] 15.4 µM | [4] > 58.5 µM | [5] > 100 µM | [6] 3.95 µM | [7] 23.2 µM | [18] > 90.8 µM | [8] 5.57 µM | [9] > 91.2 µM | [10] 3.86 µM | [11] 12.6 µM | [17] 1.97 µM | [13] 5.92 µM | [14] 13.3 µM | [15] > 61 µM
